Tested on: allodynia induced by constriction of the sciatic nerve
Assay: allodynia induced by chronic constriction of the sciatic nerve (von Frey hairs)
Assay type: in vivo, rat
Conditions: for paw withdrawal threshold (allodynia), BM: before surgery; for paw withdrawal threshold (allodynia), FM 24 h: day 14, 24 h after peptide; for paw withdrawal threshold (allodynia), FM 48 h: day 14, 48 h after peptide; for paw withdrawal threshold (allodynia), FM 72 h: day 14, 72 h after peptide; for paw withdrawal threshold (allodynia), FM 96 h: day 14, 96 h after peptide
Procedure: For the induction of neuropathic pain, surgery was performed in the sciatic nerve, in accordance with the method described by Bennett, G. J and Xie, Y. K. (Pain, 33:87-107, 1988). The animals were anesthetized with halothane. The sciatic nerve was exposed in the middle region of the thigh, moving away the femoral biceps muscle. Close to the trifurcation of the sciatic nerve, 7 mm of distance from the trifurcation, 4 loose ligations were performed (chromed catgut 4-0) around it, distant from each other in approximately 1 mm. The bindings were performed along the nerve, up to 4-5 mm from the initial point. The incision was sutured in layers, using silk suture thread number 4-0.
Allodynia was evaluated for quantitative testing, in response to tactile stimulus applied to the paws of the rat, according to the method described by Chaplan el al. (1994), modified. In this test, the rats were placed, individually, in plastic cages, with meshed wire at the bottom, to allow access to the paws of these animals. Briefly, a logarithmic series of 10 calibrated Semmes-Weinstein monofilaments (von Frey hairs, Aesthesiometer Semmer-Weinstein, Stoelting Co., E.U.A) was applied to the right hind paw to determine the stimulus intensity threshold stiffness required to elicit a paw withdrawal response. Log stiffness of the hairs is determined by log 10 (mg×10) having the following values (the value in grams is between parenthesis): 3.61 (0.407 g); 3.84 (0.692 g); 4.08 (1.202 g); 4.17 (1.479 g); 4.31 (2.041 g); 4.56 (3.630 g); 4.74 (5.495 g); 4.93 (8.511 g); 5.07 (11.749 g) and 5.18 (15.136 g). It is important to point out that the filaments with weight greater than 15.136 g were not employed in the studies of allodynia.
The filaments were applied, one by one, perpendicularly, under the plantar area of both hind paws and maintained for a period of 8 seconds. The filament capable of eliciting the withdrawal of the paw, two consecutive times, was considered as the force in grams necessary to elicit the response (100% of response). In the absence of a response to the greater stimulus (15.135 g), this filament was considered as cut value.
The behavioral responses were used to calculate the 50% paw withdrawal threshold (absolute threshold), by fitting a gaussian integral psychometric function, using a maximum-likelihood fitting method. This fitting method allows parametric analyses.
The period of the application of the test and the treatments were the same as those used for determination of hyperalgesia (Table 12).
The results were analyzed by comparing the means of the basal and initial measurements or, when determined, by comparing the means obtained in the different experimental groups.
For this purpose, the animals were treated with CTOP, a specific μ receptor antagonist (20 μg/paw), nor-BNI, a specific κ receptor antagonist (50 μg/paw) or with ICI 174,864, a specific δ receptor antagonist (10 μg/paw). The antagonists were injected, by intraplantar route. The peptide was administered in the dose of 5 μg/kg, orally, immediately before the injection of the opioid antagonists.
The results were analyzed comparing the mean values of the basal and initial measurements, or of the initial and final measurements or, when determined, by comparing the mean values obtained in the different experimental groups (Tables 15 and 16).

Xaa-Phe-Ser-Pro-Glu-Asn-Cys-Gln-Gly-Glu-Ser-Gln-Pro-Cys [SEQ ID NO: 2]
paw withdrawal threshold (allodynia), BM (0.0016 μg/kg p.o.): 5.02 ± 0.03 log 10 (mg × 10) | paw withdrawal threshold (allodynia), FM 1 h (0.0016 μg/kg p.o., day 14, 1 h after peptide): 4.22 ± 0.00 log 10 (mg × 10) | paw withdrawal threshold (allodynia), FM 3 h (0.0016 μg/kg p.o., day 14, 3 h after peptide): 4.22 ± 0.00 log 10 (mg × 10) | paw withdrawal threshold (allodynia), FM 24 h (0.0016 μg/kg p.o.): 4.22 ± 0.00 log 10 (mg × 10) | paw withdrawal threshold (allodynia), FM 48 h (0.0016 μg/kg p.o.): 4.22 ± 0.00 log 10 (mg × 10) | paw withdrawal threshold (allodynia), FM 72 h (0.0016 μg/kg p.o.): 4.22 ± 0.00 log 10 (mg × 10) | paw withdrawal threshold (allodynia), FM 96 h (0.0016 μg/kg p.o.): 4.22 ± 0.00 log 10 (mg × 10) | paw withdrawal threshold (allodynia), IM (0.0016 μg/kg p.o., day 14 after surgery, before peptide): 4.22 ± 0.00 log 10 (mg × 10) | paw withdrawal threshold (allodynia), BM (0.008 μg/kg p.o.): 4.99 ± 0.02 log 10 (mg × 10) | paw withdrawal threshold (allodynia), FM 1 h (0.008 μg/kg p.o., day 14, 1 h after peptide): 4.22 ± 0.00 log 10 (mg × 10) | paw withdrawal threshold (allodynia), FM 3 h (0.008 μg/kg p.o., day 14, 3 h after peptide): 4.22 ± 0.00 log 10 (mg × 10) | paw withdrawal threshold (allodynia), FM 24 h (0.008 μg/kg p.o.): 4.22 ± 0.00 log 10 (mg × 10) | paw withdrawal threshold (allodynia), FM 48 h (0.008 μg/kg p.o.): 4.22 ± 0.00 log 10 (mg × 10) | paw withdrawal threshold (allodynia), FM 72 h (0.008 μg/kg p.o.): 4.22 ± 0.00 log 10 (mg × 10) | paw withdrawal threshold (allodynia), FM 96 h (0.008 μg/kg p.o.): 4.22 ± 0.00 log 10 (mg × 10) | paw withdrawal threshold (allodynia), IM (0.008 μg/kg p.o., day 14 after surgery, before peptide): 4.22 ± 0.00 log 10 (mg × 10) | paw withdrawal threshold (allodynia), BM (0.04 μg/kg p.o.): 4.97 ± 0.99 log 10 (mg × 10) | paw withdrawal threshold (allodynia), FM 1 h (0.04 μg/kg p.o., day 14, 1 h after peptide): 4.22 ± 0.00 log 10 (mg × 10) | paw withdrawal threshold (allodynia), FM 3 h (0.04 μg/kg p.o., day 14, 3 h after peptide): 4.22 ± 0.00 log 10 (mg × 10) | paw withdrawal threshold (allodynia), FM 24 h (0.04 μg/kg p.o.): 4.22 ± 0.00 log 10 (mg × 10) | paw withdrawal threshold (allodynia), FM 48 h (0.04 μg/kg p.o.): 4.26 ± 0.04 log 10 (mg × 10) | paw withdrawal threshold (allodynia), FM 72 h (0.04 μg/kg p.o.): 4.22 ± 0.00 log 10 (mg × 10) | paw withdrawal threshold (allodynia), FM 96 h (0.04 μg/kg p.o.): 4.22 ± 0.00 log 10 (mg × 10) | paw withdrawal threshold (allodynia), IM (0.04 μg/kg p.o., day 14 after surgery, before peptide): 4.22 ± 0.00 log 10 (mg × 10) | paw withdrawal threshold (allodynia), BM (0.2 μg/kg p.o.): 5.03 ± 0.02 log 10 (mg × 10) | paw withdrawal threshold (allodynia), FM 1 h (0.2 μg/kg p.o., day 14, 1 h after peptide): 4.41 ± 0.00 log 10 (mg × 10) | paw withdrawal threshold (allodynia), FM 3 h (0.2 μg/kg p.o., day 14, 3 h after peptide): 4.41 ± 0.00 log 10 (mg × 10) | paw withdrawal threshold (allodynia), FM 24 h (0.2 μg/kg p.o.): 4.41 ± 0.00 log 10 (mg × 10) | paw withdrawal threshold (allodynia), FM 48 h (0.2 μg/kg p.o.): 4.41 ± 0.00 log 10 (mg × 10) | paw withdrawal threshold (allodynia), FM 72 h (0.2 μg/kg p.o.): 4.41 ± 0.00 log 10 (mg × 10) | paw withdrawal threshold (allodynia), FM 96 h (0.2 μg/kg p.o.): 4.22 ± 0.00 log 10 (mg × 10) | paw withdrawal threshold (allodynia), IM (0.2 μg/kg p.o., day 14 after surgery, before peptide): 4.22 ± 0.00 log 10 (mg × 10) | paw withdrawal threshold (allodynia), BM (1 μg/kg p.o.): 5.06 ± 0.02 log 10 (mg × 10) | paw withdrawal threshold (allodynia), FM 1 h (1 μg/kg p.o., day 14, 1 h after peptide): 4.62 ± 0.00 log 10 (mg × 10) | paw withdrawal threshold (allodynia), FM 3 h (1 μg/kg p.o., day 14, 3 h after peptide): 4.62 ± 0.00 log 10 (mg × 10) | paw withdrawal threshold (allodynia), FM 24 h (1 μg/kg p.o.): 4.62 ± 0.00 log 10 (mg × 10) | paw withdrawal threshold (allodynia), FM 48 h (1 μg/kg p.o.): 4.62 ± 0.00 log 10 (mg × 10) | paw withdrawal threshold (allodynia), FM 72 h (1 μg/kg p.o.): 4.62 ± 0.00 log 10 (mg × 10) | paw withdrawal threshold (allodynia), FM 96 h (1 μg/kg p.o.): 4.22 ± 0.00 log 10 (mg × 10) | paw withdrawal threshold (allodynia), IM (1 μg/kg p.o., day 14 after surgery, before peptide): 4.23 ± 0.01 log 10 (mg × 10) | paw withdrawal threshold (allodynia), FM 1 h (5 μg/kg p.o. + CTOP 20 μg/paw i.pl., 1 h after peptide): 5.00 ± 0.05 log 10 (mg × 10) | paw withdrawal threshold (allodynia), FM 3 h (5 μg/kg p.o. + CTOP 20 μg/paw i.pl., 3 h after peptide): 4.99 ± 0.02 log 10 (mg × 10) | paw withdrawal threshold (allodynia), BM (5 μg/kg p.o. + CTOP 20 μg/paw i.pl.): 4.99 ± 0.02 log 10 (mg × 10) | paw withdrawal threshold (allodynia), IM (5 μg/kg p.o. + CTOP 20 μg/paw i.pl., day 14, before peptide): 4.29 ± 0.04 log 10 (mg × 10) | paw withdrawal threshold (allodynia), FM 1 h (5 μg/kg p.o. + ICI 174,864 10 μg/paw i.pl., 1 h after peptide): 4.22 ± 0 log 10 (mg × 10) | paw withdrawal threshold (allodynia), FM 3 h (5 μg/kg p.o. + ICI 174,864 10 μg/paw i.pl., 3 h after peptide): 4.22 ± 0 log 10 (mg × 10) | paw withdrawal threshold (allodynia), BM (5 μg/kg p.o. + ICI 174,864 10 μg/paw i.pl.): 4.96 ± 0.04 log 10 (mg × 10) | paw withdrawal threshold (allodynia), IM (5 μg/kg p.o. + ICI 174,864 10 μg/paw i.pl., day 14, before peptide): 4.29 ± 0.04 log 10 (mg × 10) | paw withdrawal threshold (allodynia), FM 1 h (5 μg/kg p.o. + nor-BNI 50 μg/paw i.pl., 1 h after peptide): 4.62 ± 0 log 10 (mg × 10) | paw withdrawal threshold (allodynia), FM 3 h (5 μg/kg p.o. + nor-BNI 50 μg/paw i.pl., 3 h after peptide): 4.62 ± 0 log 10 (mg × 10) | paw withdrawal threshold (allodynia), BM (5 μg/kg p.o. + nor-BNI 50 μg/paw i.pl.): 5.03 ± 0.02 log 10 (mg × 10)
